From patent publication US6541191B2, “Photographic processing solutions” (Eastman Kodak Company, priority 1996, dated 2003)
Where “and” joins values, the source holds several entries; their conditions need not be identical. Identical values can stand only once. Like-named read-outs stand apart in the source and are kept apart here.

Tests used:
Type in all cases: physicochemical
[1] = Solubility of processing compounds (stated in the description)
[2] = Equilibrium level of MCH in circulated potassium carbonate solution on dilution or evaporation (Example 1); settings: potassium carbonate pH 10.5
Method: A circulation system of about 500 ml capacity was set up in which solid N-monocyclohexyl hydroxylamine (MCH) was retained behind a removable filter paper filter. The solution circulated was potassium carbonate at pH=10.5. The solution was left to circulate for 30 minutes and the amount of MCH in solution was determined by removing the paper filter that retained the MCH, drying and weighing it. […] The volume was increased by increments of 10%. In a second part of the experiment most of the solution was removed from the system and evaporated to reduce its volume, again in increments of 10%. Solid MCH came out of solution and was collected on the filter and weighed as before.

[3] = Keeping test of continuously aerated developers with limited-solubility antioxidants, analysed for CD3 content (Example 2); settings: about 0.029 molar antioxidant added, developer pH 10.05; rest solid swirling in solution
Method: The compounds CSD and MCH were compared with diethyl hydroxylamine at equimolar levels in a developer of the composition shown in Table 2.
The antioxidant level was equivalent to 3.0 ml/l diethyl hydroxylamine (85%); which is about 0.029 molar. The three developers were as follows;
These developers were placed in 500 ml measuring cylinders and stirred continuously with magnetic stirrers to create a vortex depth of about 5 mm in each case in order to ensure continuous aeration.

**Q.** Which “solubility in water” value [1] does the source give for `ON(Cc1ccccc1)Cc1ccccc1` [dibenzyl-hydroxylamine, reference compound] here?
**A.** The value was “almost entirely insoluble in water”.

**Q.** For `CCCNc1nc(NO)nc(NO)n1` [CSD, 4,5-dihydroxylamino-2-propylamino-1,3,5-triazine], which solubility [1] is on record?
**A.** Its solubility is 500 µg/mL to 1000 µg/mL and ~5000 µM.

**Q.** Which “solubility in water” value [1] does the source give for `CC(C)(C)NO` [mono-t-butyl-hydroxylamine, reference compound] here?
**A.** The value was “too soluble”.

**Q.** Which results are given for `ONC1CCCCC1` [MCH, Mono-N-cyclohexylhydroxylamine]?
**A.** time for the MCH level to adjust itself to the initial level after dilution or evaporation [2]: ≤ 30 min; MCH in Solution ([2]; volume 70 % relative to initial (evaporation)): 4.03 g/L; MCH in Solution ([2]; volume 80 % relative to initial (evaporation)): 3.92 g/L; MCH in Solution ([2]; volume 90 % relative to initial (evaporation)): 3.88 g/L; MCH in Solution ([2]; volume 100 % relative to initial, 30 minutes): 3.80 g/1; MCH in Solution ([2]; volume 110 % relative to initial, 30 minutes): 3.81 g/L; MCH in Solution ([2]; volume 120 % relative to initial, 30 minutes): 3.87 g/L; MCH in Solution ([2]; volume 130 % relative to initial, 30 minutes): 4.11 g/L; MCH in Solution ([2]; volume 140 % relative to initial, 30 minutes): 4.05 g/L; MCH in Solution ([2]; volume 150 % relative to initial, 30 minutes): 3.96 g/L; share of the antioxidant in solution in the developer [3]: About 90%; solubility ([1]; aqueous buffer, at developer pH (10.0)): 3900 µg/mL to 4000 µg/mL and ~26000 µM

**Q.** Which “share of the antioxidant in solution in the developer” value [3] does the source give for `CCN(O)CC` [Diethyl hydroxylamine, reference compound] here?
**A.** The value was “completely in solution”.

**Q.** And the “solubility in water” value [1]?
**A.** The value was “essentially miscible in all proportions with water”.
